Data on nine compounds can be found in ChEMBL document CHEMBL1148386, “(2S,1'S,2'R,3'R)-2-(2'-Carboxy-3'-hydroxymethylcyclopropyl) glycine is a highly potent group 2 and 3 metabotropic glutamate receptor agonist with oral activity” (J Med Chem, 2004).

The target in experiment [1] is T1, Metabotropic glutamate receptor 4 (Rattus norvegicus, UniProt P31423). As to the kind of experiment: Metabotropic glutamate receptor 4 agonist activity to influence forskolin stimulated c-AMP formation in rat non neuronal cells. In kind it is functional, cell-based.
In experiment [2] the target is Metabotropic glutamate receptor 1 (Rattus norvegicus, UniProt P23385). As to the kind of experiment: Metabotropic glutamate receptor 1 agonist activity as basal [3H]- IP formation in rat. In kind it is functional.
Sequence of Metabotropic glutamate receptor 1 (P23385 whole entry): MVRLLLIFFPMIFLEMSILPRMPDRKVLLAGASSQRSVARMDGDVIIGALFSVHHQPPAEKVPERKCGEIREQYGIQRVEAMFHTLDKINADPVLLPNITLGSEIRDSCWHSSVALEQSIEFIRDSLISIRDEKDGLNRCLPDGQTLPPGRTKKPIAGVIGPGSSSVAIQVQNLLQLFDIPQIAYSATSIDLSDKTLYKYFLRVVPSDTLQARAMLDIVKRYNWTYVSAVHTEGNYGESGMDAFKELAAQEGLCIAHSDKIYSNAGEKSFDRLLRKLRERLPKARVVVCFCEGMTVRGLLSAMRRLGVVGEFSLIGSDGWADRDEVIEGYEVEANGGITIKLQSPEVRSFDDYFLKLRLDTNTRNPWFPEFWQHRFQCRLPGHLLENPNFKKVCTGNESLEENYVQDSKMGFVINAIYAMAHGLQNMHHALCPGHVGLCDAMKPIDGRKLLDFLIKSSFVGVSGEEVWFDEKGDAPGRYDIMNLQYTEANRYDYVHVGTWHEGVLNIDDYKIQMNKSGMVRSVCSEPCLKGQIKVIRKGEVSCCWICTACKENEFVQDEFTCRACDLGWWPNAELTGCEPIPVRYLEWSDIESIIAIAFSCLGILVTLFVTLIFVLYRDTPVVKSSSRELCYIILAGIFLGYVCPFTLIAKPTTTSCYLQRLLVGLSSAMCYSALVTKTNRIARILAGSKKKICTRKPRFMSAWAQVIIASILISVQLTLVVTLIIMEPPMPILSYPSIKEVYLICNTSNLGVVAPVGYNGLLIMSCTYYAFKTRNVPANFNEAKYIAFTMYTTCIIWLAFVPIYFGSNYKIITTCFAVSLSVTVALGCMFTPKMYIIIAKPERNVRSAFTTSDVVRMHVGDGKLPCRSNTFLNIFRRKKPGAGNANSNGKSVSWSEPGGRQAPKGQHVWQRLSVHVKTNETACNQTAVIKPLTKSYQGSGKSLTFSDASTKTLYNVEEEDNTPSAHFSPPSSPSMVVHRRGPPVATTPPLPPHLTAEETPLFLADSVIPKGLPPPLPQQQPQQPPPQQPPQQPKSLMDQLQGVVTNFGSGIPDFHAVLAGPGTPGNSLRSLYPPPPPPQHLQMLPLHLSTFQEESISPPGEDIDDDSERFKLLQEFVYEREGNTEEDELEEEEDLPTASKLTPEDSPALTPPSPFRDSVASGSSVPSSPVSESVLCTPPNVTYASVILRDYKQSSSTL
In experiment [3] the target is T2, Metabotropic glutamate receptor 7 (Rattus norvegicus, UniProt P35400). As to the kind of experiment: Metabotropic glutamate receptor 7 agonist activity to influence forskolin stimulated c-AMP formation in rat non neuronal cells. In kind it is functional, cell-based.
T2 sequence (P35400 whole entry): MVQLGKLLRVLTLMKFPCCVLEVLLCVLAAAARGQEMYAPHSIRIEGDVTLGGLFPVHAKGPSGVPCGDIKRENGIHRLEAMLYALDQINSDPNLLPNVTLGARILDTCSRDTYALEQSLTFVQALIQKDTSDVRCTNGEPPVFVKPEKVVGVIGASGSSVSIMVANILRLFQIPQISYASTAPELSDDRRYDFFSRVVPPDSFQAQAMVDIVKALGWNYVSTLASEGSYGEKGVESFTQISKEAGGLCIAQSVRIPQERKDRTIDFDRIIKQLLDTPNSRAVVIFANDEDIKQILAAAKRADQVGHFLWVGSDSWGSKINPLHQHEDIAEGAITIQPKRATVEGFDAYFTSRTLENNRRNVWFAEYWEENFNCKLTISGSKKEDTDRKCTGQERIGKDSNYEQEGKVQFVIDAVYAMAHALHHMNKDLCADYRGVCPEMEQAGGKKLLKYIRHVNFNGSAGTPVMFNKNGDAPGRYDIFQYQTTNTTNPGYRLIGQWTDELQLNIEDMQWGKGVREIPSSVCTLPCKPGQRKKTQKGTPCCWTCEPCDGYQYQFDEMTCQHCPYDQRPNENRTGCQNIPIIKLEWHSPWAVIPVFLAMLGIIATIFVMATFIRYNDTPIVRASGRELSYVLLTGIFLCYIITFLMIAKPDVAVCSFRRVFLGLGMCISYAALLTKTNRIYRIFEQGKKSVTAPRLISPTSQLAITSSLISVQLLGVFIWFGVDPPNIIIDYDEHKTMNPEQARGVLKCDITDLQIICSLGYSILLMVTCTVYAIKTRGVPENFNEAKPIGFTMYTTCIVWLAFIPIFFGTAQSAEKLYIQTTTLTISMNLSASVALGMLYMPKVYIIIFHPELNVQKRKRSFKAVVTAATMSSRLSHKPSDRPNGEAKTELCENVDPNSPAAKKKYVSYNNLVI
Experiment [4] concerns the target T3, Metabotropic glutamate receptor 8 (Rattus norvegicus, UniProt P70579). As to the kind of experiment: Metabotropic glutamate receptor 8 agonist activity against forskolin stimulated c-AMP formation in rat non neuronal cells. In kind it is functional, cell-based.
The target in experiment [5] is Metabotropic glutamate receptor 2 (Rattus norvegicus, UniProt P31421). As to the kind of experiment: Metabotropic glutamate receptor 2 agonist activity against forskolin stimulated c-AMP formation in rat non neuronal cells. In kind it is functional, cell-based.
Sequence of Metabotropic glutamate receptor 2 (P31421 whole entry): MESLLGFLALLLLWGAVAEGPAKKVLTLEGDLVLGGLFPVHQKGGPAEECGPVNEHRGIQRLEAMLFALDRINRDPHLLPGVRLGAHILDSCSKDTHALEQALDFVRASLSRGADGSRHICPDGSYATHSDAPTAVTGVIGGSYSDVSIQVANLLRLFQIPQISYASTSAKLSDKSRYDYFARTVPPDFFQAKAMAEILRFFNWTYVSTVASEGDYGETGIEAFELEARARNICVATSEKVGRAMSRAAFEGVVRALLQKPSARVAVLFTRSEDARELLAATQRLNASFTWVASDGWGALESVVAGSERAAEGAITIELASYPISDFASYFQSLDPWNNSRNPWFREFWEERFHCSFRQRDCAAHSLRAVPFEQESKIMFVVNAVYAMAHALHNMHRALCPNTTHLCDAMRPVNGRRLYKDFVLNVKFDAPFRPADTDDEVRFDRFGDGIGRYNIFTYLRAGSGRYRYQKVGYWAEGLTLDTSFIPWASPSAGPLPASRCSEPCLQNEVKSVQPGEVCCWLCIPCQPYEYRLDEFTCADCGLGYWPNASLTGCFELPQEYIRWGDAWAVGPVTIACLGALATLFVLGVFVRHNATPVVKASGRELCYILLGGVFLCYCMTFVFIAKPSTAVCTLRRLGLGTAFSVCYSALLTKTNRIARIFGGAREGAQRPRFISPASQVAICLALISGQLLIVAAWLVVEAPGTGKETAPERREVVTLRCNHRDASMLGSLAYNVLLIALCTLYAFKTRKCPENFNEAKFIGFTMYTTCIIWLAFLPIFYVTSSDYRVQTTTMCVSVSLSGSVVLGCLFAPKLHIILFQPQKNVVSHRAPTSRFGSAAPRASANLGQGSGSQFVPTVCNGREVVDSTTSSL
The target in experiment [6] is Metabotropic glutamate receptor 3 (Rattus norvegicus, UniProt P31422). Nature of the experiment: Metabotropic glutamate receptor 3 agonist activity against forskolin stimulated c-AMP formation in rat non neuronal cells. In kind it is functional, cell-based.
Experiment [7] addresses Metabotropic glutamate receptor 5 (Rattus norvegicus, UniProt P31424). As to the kind of experiment: Metabotropic glutamate receptor 5 agonist activity as basal [3H]- IP formation in rat. In kind it is functional.
Experiment [8] deals with T4, Metabotropic glutamate receptor 6 (Rattus norvegicus, UniProt P35349). Nature of the experiment: Metabotropic glutamate receptor 6 agonist activity to influence forskolin stimulated c-AMP formation in rat non neuronal cells. In kind it is functional, cell-based.
Experiment [9] concerns the target T4, Metabotropic glutamate receptor 6. Nature of the experiment: Metabotropic glutamate receptor 6 antagonist activity to influence forskolin stimulated c-AMP formation in rat non neuronal cells. In kind it is functional, cell-based.
Experiment [10] deals with T2, Metabotropic glutamate receptor 7. As to the kind of experiment: Metabotropic glutamate receptor 7 antagonist activity to influence forskolin stimulated c-AMP formation in rat non neuronal cells. In kind it is functional, cell-based.
Experiment [11] addresses T3, Metabotropic glutamate receptor 8. Nature of the experiment: Metabotropic glutamate receptor 8 antagonist activity to influence forskolin stimulated c-AMP formation in rat non neuronal cells. In kind it is functional, cell-based.
In experiment [12] the target is T1, Metabotropic glutamate receptor 4. As to the kind of experiment: Metabotropic glutamate receptor 4 antagonist activity to influence forskolin stimulated c-AMP formation in rat non neuronal cells. In kind it is functional, cell-based.

T3 sequence (P70579 whole entry): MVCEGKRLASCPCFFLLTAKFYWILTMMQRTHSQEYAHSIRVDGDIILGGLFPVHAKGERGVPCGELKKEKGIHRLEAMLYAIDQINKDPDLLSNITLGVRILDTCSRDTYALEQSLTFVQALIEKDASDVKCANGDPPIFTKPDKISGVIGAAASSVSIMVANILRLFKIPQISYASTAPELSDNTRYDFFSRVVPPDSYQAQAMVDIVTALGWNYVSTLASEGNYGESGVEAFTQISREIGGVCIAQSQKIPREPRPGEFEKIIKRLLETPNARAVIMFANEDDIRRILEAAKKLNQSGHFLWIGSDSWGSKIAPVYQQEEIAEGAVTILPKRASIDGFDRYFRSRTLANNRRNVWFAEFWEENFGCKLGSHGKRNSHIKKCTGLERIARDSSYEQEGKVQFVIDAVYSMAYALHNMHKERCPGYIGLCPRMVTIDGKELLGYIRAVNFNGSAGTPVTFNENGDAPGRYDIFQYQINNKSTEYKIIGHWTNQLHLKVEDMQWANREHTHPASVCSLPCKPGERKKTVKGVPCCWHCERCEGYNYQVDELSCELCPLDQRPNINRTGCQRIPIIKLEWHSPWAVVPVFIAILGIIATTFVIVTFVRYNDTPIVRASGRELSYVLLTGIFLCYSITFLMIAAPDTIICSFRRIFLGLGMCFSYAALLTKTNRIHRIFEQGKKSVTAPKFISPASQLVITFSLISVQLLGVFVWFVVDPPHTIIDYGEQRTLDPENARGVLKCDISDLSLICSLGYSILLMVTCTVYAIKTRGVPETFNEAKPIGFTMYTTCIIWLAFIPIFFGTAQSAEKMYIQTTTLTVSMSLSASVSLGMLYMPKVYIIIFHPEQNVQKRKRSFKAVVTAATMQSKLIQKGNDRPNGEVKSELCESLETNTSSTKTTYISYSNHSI
Sequence of Metabotropic glutamate receptor 5 (P31424 whole entry): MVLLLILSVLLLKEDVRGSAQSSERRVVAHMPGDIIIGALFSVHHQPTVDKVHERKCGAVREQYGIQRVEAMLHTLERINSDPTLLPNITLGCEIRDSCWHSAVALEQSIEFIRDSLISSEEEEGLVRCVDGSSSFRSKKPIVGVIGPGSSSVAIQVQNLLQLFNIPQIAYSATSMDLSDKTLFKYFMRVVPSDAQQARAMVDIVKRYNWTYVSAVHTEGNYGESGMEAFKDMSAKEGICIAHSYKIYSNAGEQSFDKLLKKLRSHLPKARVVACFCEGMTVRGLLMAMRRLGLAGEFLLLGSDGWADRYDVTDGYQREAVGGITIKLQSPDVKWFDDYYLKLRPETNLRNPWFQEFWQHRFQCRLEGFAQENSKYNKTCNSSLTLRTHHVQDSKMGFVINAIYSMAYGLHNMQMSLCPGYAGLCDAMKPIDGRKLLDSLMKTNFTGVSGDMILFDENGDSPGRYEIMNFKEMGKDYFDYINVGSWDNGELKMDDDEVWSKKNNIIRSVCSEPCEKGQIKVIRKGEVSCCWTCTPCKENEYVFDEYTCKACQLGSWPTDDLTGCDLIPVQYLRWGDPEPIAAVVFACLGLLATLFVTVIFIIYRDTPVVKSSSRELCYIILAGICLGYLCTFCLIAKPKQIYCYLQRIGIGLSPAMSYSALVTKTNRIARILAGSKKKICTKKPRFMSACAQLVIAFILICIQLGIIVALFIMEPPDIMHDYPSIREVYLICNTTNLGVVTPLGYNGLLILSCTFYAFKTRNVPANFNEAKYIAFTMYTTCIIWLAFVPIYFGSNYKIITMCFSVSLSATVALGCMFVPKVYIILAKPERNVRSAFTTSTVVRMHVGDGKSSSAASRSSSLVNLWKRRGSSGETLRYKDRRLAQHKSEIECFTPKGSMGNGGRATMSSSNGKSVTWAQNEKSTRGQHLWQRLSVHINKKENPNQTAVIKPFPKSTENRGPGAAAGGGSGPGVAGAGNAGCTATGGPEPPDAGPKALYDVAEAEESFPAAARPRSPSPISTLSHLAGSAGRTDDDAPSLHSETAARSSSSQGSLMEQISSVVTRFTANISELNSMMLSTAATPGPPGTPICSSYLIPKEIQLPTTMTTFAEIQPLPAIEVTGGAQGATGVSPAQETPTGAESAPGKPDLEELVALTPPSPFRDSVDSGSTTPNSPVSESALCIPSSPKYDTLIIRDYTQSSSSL

Turning to `N[C@H](C(=O)O)c1ccc(C(=O)O)c(C(=O)O)c1`, the EC50 (usually the concentration needed to bring the measured effect to its halfway point) in experiment [1] was 8.8 µM; in [2] it was 32 µM; in experiment [3], over 100 µM; in experiment [4] it was 0.031 µM; in [5], over 100 µM; in [6], over 100 µM. Also, the EC50 in experiment [7] was over 100 µM; in [8], 3.6 µM.

On to `N[C@H](C(=O)O)[C@H]1[C@H](CC(=O)O)[C@@H]1C(=O)O`, for which the EC50 in [2] is over 100 µM; in experiment [5] it was 0.3 µM; in experiment [7] it was over 100 µM.

As to `N[C@H](C(=O)O)[C@H]1C[C@@H]1C(=O)O`, the EC50 in [1] was 4 µM; in experiment [2] it was 23 µM; in experiment [3] it was 47 µM; in experiment [4], 0.4 µM; in experiment [5], 0.3 µM; in [6], 0.6 µM. Also, the 50% effective concentration (EC50) was found to be 17 µM in experiment [7] and 0.6 µM in experiment [8].

As to `N[C@H](C(=O)O)C1[C@@H](C(=O)O)[C@@H]1C(=O)O` (some centres undefined), the EC50 in experiment [9] was 40 µM; in experiment [10], 40 µM; in [2], over 100 µM; in experiment [11], 32 µM; in experiment [6], 0.2 µM; in experiment [12], 23 µM. Moreover, the half-maximal effective concentration (EC50) in [7] worked out at 389 µM.

For the compound `C[C@H]1[C@H](C(=O)O)[C@H]1[C@H](N)C(=O)O`, the EC50 in [1] is over 100 µM; in [2], over 100 µM; in experiment [3], over 100 µM; in [4], 1.32 µM; in [5], 0.008 µM; in experiment [6], 0.038 µM. Besides, the EC50 in experiment [7] is over 100 µM; in experiment [8], 1.2 µM.

With `N[C@@H](CCP(=O)(O)O)C(=O)O`, the 50% effective concentration (EC50) is 0.32 µM in experiment [1]; over 100 µM in experiment [2]; 175 µM in experiment [3]; 0.06 µM in [4]; 448 µM in experiment [5]; over 100 µM in experiment [6]. Further, the concentration for a half-maximal effect (EC50) was over 100 µM in [7] and 0.055 µM in experiment [8].

Take `N[C@H](C(=O)O)[C@H]1[C@@H](CC(=O)O)[C@@H]1C(=O)O`: the 50% effective concentration (EC50) in [2] was over 100 µM; in experiment [5] it was 0.1 µM; in experiment [7], over 100 µM.

Turning to `N[C@H](C(=O)O)[C@@H]1[C@@H](C(=O)O)C1(F)F`, the EC50 in [5] is 0.09 µM.

Consider `NC(C(=O)O)c1ccc(P(=O)(O)O)cc1` (racemic), for which the EC50 in experiment [1] is 5.2 µM; in experiment [2], over 500 µM; in [3], 185 µM; in experiment [4], 0.21 µM; in experiment [5] it was over 300 µM; in [6] it was over 200 µM. The 50% effective concentration (EC50) was over 500 µM in [7] and 4.7 µM in [8].
